Laboratory results published in patent US20240209014A1, “NOVEL SPINOSYN PRODRUGS” (Acies Bio d.o.o., priority 2021, published 2024).

Legend:
[1] = test system: honey bees (Apis melifera carnica, Pollman 1879); experiment: Single dose acute oral toxicity test on adult worker honey bees; format: in vivo
Procedure: Toxicity of the compounds of this invention towards honey bees (Apis melifera carnica, Pollman 1879) was assessed in comparison with commercially available samples of spinosad (LGC (Dr. Ehrenstorfer); Product code: DRE-C16972830) and the naturally produced compound butenyl spinosyn alpha 1. Solutions of spinosyn compounds were prepared in 100 mM ammonium acetate, pH=5, and later diluted in 50% (500 g/L) sucrose solution in water to final concentrations. Two final concentrations were used for each compound, 7.76 μmol/L and 15.53 μmol/L.
Single dose acute oral toxicity tests were conducted on adult worker bees according to previously described standard methods (Medrzycki at el., (2013)). Each compound and condition were tested in two parallels. Briefly, each parallel experiment consisted of 5 cages with 20 honey bees per cage. […] After uptake of the solutions honey bees were supplied with standard 50% sucrose solution and observed at 24 h and 48 h and the number of dead and live bees was estimated.
Ammonium acetate solution with pH 5 was used as the negative control.

[2] = Stability of J1Aa and J7a at different pH values (LC-MS); format: physicochemical
Procedure: Stability of compounds J1Aa and J7a was evaluated at different pH values. Differential stability/conversion to the active ingredient is expected to result in condition-specific activation and thereby to higher specificity towards target pests.
Stock solutions of the compounds were prepared at concentration of 0.1 mol/L. 10 μL of the stock solutions were transferred to 0.75 ml of the buffer solutions with pH values of 4, 5, 9 and 11. […] After specified times samples were analyzed using LC-MS. The compounds J1Aa and J7a and the active compound spinosyn A were quantified. It is seen that the two compounds are converted to the active form preferably in alkaline conditions.

[3] = test system: larvae of Ostrinia nubilialis (development stage L1); experiment: Insecticide efficacy, corn leaf dip, Henderson-Tilton method; format: in vivo
Procedure: Insecticide activities of the compounds of this invention were assessed in comparison with commercially available samples of spinosad (LGC (Dr. Ehrenstorfer); Product code: DRE-C16972830) and spinetoram (LGC (Dr. Ehrenstorfer); Product code: DRE-C16972770). Solutions of spinosyn compounds were prepared by adding 0.05% Tween 80, lowering pH to 5.95 and sonicating. Two concentrations of each compound were used, 0.1 μg/ml and 0.3 μg/mL, with each condition tested in four parallels.
Freshly collected corn leaves were dipped into the prepared solutions. After dipping leaves were left to dry at room temperature for 1 hour. Each dry leaf was then infested with 4 larvae of Ostrinia nubilialis (development stage L1), and the experimental device was incubated at 21° C.-23° C. for 24 h in order to optimize insect development. At three timings post infestation (1 day, 3 days and 6 days), the insecticide efficacy is evaluated from the number of living larvae using the Henderson-Tilton method. Untreated control was integrated for normalization and validation of larvae health.

[4] = single oral dose 0.078 nmol/bee, 24 h after application
[5] = single oral dose 0.078 nmol/bee, 48 h after application
[6] = single oral dose 0.155 nmol/bee, 24 h after application
[7] = single oral dose 0.155 nmol/bee, 48 h after application

| Compound | % of surviving honey bees [1, 4] | % of surviving honey bees [1, 5] | % of surviving honey bees [1, 6] | % of surviving honey bees [1, 7] | Compound (J1Aa/J7a) Area % remaining ([2]; buffer pH 4, 0.16 h) | SPN Area % (active spinosyn A released) ([2]; buffer pH 4, 0.16 h) | Compound (J1Aa/J7a) Area % remaining ([2]; buffer pH 4, 6 h) | SPN Area % (active spinosyn A released) ([2]; buffer pH 4, 6 h) | Compound (J1Aa/J7a) Area % remaining ([2]; buffer pH 4, 12 h) | SPN Area % (active spinosyn A released) ([2]; buffer pH 4, 12 h) | Compound (J1Aa/J7a) Area % remaining ([2]; buffer pH 4, 24 h) | SPN Area % (active spinosyn A released) ([2]; buffer pH 4, 24 h) | Compound (J1Aa/J7a) Area % remaining ([2]; buffer pH 5, 0.16 h) | SPN Area % (active spinosyn A released) ([2]; buffer pH 5, 0.16 h) | Compound (J1Aa/J7a) Area % remaining ([2]; buffer pH 5, 6 h) | SPN Area % (active spinosyn A released) ([2]; buffer pH 5, 6 h) | Compound (J1Aa/J7a) Area % remaining ([2]; buffer pH 5, 12 h) | SPN Area % (active spinosyn A released) ([2]; buffer pH 5, 12 h) | Compound (J1Aa/J7a) Area % remaining ([2]; buffer pH 5, 24 h) | SPN Area % (active spinosyn A released) ([2]; buffer pH 5, 24 h) | also measured |
| --- | --- | --- | --- | --- | --- | --- | --- | --- | --- | --- | --- | --- | --- | --- | --- | --- | --- | --- | --- | --- | --- |
| CC[C@H]1CCC[C@H](OC2CCC([N+](C)(C)COC(=O)C(C)(C)C)C(C)O2)[C@@H](C)C(=O)C2=C[C@@H]3[C@@H](C=C[C@@H]4C[C@@H](OC5OC(C)C(OC)C(OC)C5OC)C[C@@H]34)[C@@H]2CC(=O)O1 (stereo partly shown) [Compound J1Aa] | 99% | 82% | 91% | 42% | 94.2% | 5.8% | 92.9% | 7.1% | 93.8% | 6.2% | 93.5% | 6.5% | 94.1% | 5.9% | 91.0% | 9.0% | 92.0% | 8.0% | 90.4% | 9.6% | Compound (J1Aa/J7a) Area % remaining ([2]; buffer pH 9, 0.16 h): 33.1%; SPN Area % (active spinosyn A released) ([2]; buffer pH 9, 0.16 h): 66.9%; Compound (J1Aa/J7a) Area % remaining ([2]; buffer pH 9, 6 h): 0.0%; SPN Area % (active spinosyn A released) ([2]; buffer pH 9, 6 h): 100.0%; Compound (J1Aa/J7a) Area % remaining ([2]; buffer pH 11, 0.16 h): 0.0%; SPN Area % (active spinosyn A released) ([2]; buffer pH 11, 0.16 h): 100.0% |
| CC[C@H]1CCC[C@H](OC2CCC([N+](C)(C)COC(=O)OC(C)C)C(C)O2)[C@@H](C)C(=O)C2=C[C@@H]3[C@@H](C=C[C@@H]4C[C@@H](OC5OC(C)C(OC)C(OC)C5OC)C[C@@H]34)[C@@H]2CC(=O)O1 (stereo partly shown) [Compound J7a] | 96% | 88% | 97% | 68% | 92.1% | 7.9% | 91.6% | 8.4% | 91.3% | 8.7% | 90.7% | 9.3% | 91.8% | 8.2% | 90.9% | 9.1% | 90.3% | 9.7% | 89.0% | 11.0% | Compound (J1Aa/J7a) Area % remaining ([2]; buffer pH 9, 0.16 h): 44.4%; SPN Area % (active spinosyn A released) ([2]; buffer pH 9, 0.16 h): 55.6%; Compound (J1Aa/J7a) Area % remaining ([2]; buffer pH 9, 6 h): 0.0%; SPN Area % (active spinosyn A released) ([2]; buffer pH 9, 6 h): 100.0%; Compound (J1Aa/J7a) Area % remaining ([2]; buffer pH 11, 0.16 h): 0.1%; SPN Area % (active spinosyn A released) ([2]; buffer pH 11, 0.16 h): 99.9% |
| spinetoram [Spinoteram, reference compound] |  |  |  |  |  |  |  |  |  |  |  |  |  |  |  |  |  |  |  |  | % Efficacy ([3]; dose 0.1 μg a.i./ml, 1 day post infestation): 27%; % Efficacy ([3]; dose 0.1 μg a.i./ml, 3 days post infestation): 60%; % Efficacy ([3]; dose 0.1 μg a.i./ml, 6 days post infestation): 85%; % Efficacy ([3]; dose 0.3 μg a.i./ml, 1 day post infestation): 31%; % Efficacy ([3]; dose 0.3 μg a.i./ml, 3 days post infestation): 86%; % Efficacy ([3]; dose 0.3 μg a.i./ml, 6 days post infestation): 97% |
